Results published in patent US12290513B2, “Therapeutic methods and compositions for treating movement disorders” (Vima Therapeutics, Inc., priority 2023, dated 2025).

How the values were obtained:
[1] = molecular target: T1, human muscarinic receptor M2 (Homo sapiens, UniProt P08172); assay: Calcium flux assay (FLIPR), CHO cells expressing human M2; type: cell-based; settings: agonist mode
T1 construct: expressed in transfected cells
Procedure: (§1) All cells used in the following experiments were clonal populations of Chinese Hamster Ovary (CHO) cells stably expressing the corresponding human muscarinic receptor, except for the M4 cell line, which was a population of CHO cells transiently transfected with the human M4 receptor. Muscarinic agonism and antagonism of each receptor was measured by a quantitative calcium flux assay that is used for multiple classes of G-protein-coupled receptors, or GPCRs, as described elsewhere (e.g., Arkin et al., […], PMID: 22553878). Acetylcholine and atropine were used as positive controls for receptor agonism and antagonism, respectively. The procedure was as follows: • 1. Cells were thawed and cultured in cell culture medium (DMEM/F12 containing 10% FBS, 1× penicillin-streptomycin and 600 μg/ml hygromycin B) at 37° C. in 5% (v/v) CO2. • 2. One day before the assays, cells were detached using TrypLE™ and counted using a cell-counter. Only cells with >85% viability are used for the assay. • 3. […] Plates were read for 160 sec with 1 sec intervals to obtain the data in agonist mode, then kept at 25° C. in the dark for 30 min. • 11. […] Plates were read for 160 sec with 1 sec intervals, thereby measuring the ability for test compounds to antagonize the activation of muscarinic receptors by Ach.

[2] = molecular target: human muscarinic receptor M3 (Homo sapiens, UniProt P20309); assay: cell-based
human muscarinic receptor M3, sequence (P20309 whole entry): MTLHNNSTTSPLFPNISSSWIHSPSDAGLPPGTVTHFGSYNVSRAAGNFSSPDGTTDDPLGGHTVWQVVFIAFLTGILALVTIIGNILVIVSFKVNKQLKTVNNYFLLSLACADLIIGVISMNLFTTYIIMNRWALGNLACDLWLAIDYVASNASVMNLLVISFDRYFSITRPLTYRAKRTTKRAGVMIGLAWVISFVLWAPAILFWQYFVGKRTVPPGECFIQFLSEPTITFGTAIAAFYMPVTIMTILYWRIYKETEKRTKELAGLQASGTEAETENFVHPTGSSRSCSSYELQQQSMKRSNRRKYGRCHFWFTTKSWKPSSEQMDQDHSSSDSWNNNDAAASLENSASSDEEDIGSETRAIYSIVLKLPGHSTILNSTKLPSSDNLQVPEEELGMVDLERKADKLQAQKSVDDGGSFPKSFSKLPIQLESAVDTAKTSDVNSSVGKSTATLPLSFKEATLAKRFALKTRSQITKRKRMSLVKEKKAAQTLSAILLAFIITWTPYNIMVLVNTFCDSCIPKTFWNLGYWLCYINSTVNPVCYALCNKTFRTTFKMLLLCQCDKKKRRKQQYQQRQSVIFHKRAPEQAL
Procedure: (§2) All cells used in the following experiments were clonal populations of Chinese Hamster Ovary (CHO) cells stably expressing the corresponding human muscarinic receptor, except for the M4 cell line, which was a population of CHO cells transiently transfected with the human M4 receptor. […] The procedure was as follows: • 1. Cells were thawed and cultured in cell culture medium (DMEM/F12 containing 10% FBS, 1× penicillin-streptomycin and 600 μg/ml hygromycin B) at 37° C. in 5% (v/v) CO2. • 2. One day before the assays, cells were detached using TrypLE™ and counted using a cell-counter. […] 12,000 cells/well were seeded in 30 μl/well culture medium in a 384-well cell plate and incubated overnight at 37C, 5% (v/v) CO2. • 4. On the assay day, 2× dye solution was prepared following the manual of the FLIPR® Calcium 6 Assay Kit: • i. The dye was diluted with assay buffer (20 mM HEPES in 1× HBSS, PH 7.4); • ii. Probenecid was added to a final concentration of 5 mM; • iii. […] were vortexed vigorously for 1-2 minutes. • 5. Medium was removed from the cell plate by flicking the cell plate on paper towels. • 6. 10 μl of assay buffer and 10 μl of 2× dye solution was added to each well of the cell plate. • 7. The cell plate was shaken on a plate shaker at 600 rpm for 2 minutes and incubated at 37° C. for 2 hours followed by an additional 15-minute incubation at 25° C. • 8. The test compounds were next prepared in assay buffer: • a. All compounds were diluted to the required concentration with DMSO and added to a 384-well compound plate; • b. All compounds were serially diluted; • 1. Starting with 10 mM concentration of each test compound, all samples were serially diluted in 3-fold dilutions. • 2. 90 nl/well of each compound was transferred from the source plate to a 384-well compound plate using an Echo liquid handler. • 3. 30 μl/well assay buffer was added to the compound plate; • c. The plates were mixed on a plate shaker for 2 mins; • 9. The cell plate, compound plate and pipette tips were placed in the FLIPR screening system and 10 μl of each compound was added to a well of the cell plate. • 10. Plates were read for 160 sec with 1 sec intervals to obtain the data in agonist mode, then kept at 25° C. in the dark for 30 min. • 11.

[3] = molecular target: human muscarinic receptor M1 (Homo sapiens, UniProt P11229); assay: cell-based
human muscarinic receptor M1, sequence (P11229 whole entry): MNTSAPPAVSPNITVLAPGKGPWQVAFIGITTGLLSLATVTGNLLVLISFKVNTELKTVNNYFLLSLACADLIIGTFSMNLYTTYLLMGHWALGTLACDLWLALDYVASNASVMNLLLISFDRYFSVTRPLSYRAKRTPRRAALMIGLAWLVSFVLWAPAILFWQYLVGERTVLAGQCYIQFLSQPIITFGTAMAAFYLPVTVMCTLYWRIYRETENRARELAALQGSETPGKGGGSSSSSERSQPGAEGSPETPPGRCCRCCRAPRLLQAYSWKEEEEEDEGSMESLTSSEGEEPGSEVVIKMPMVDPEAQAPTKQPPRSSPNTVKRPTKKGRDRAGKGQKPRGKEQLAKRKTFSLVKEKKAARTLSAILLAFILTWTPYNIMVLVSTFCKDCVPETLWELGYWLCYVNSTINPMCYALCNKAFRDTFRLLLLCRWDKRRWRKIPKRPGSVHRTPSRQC
Procedure: as §2

[4] = tested on: Cerep87 Safety Panel receptors; assay: Cerep87 Safety Panel (Eurofins), whole panel statements; type: binding; settings: all receptors of the Cerep87 panel
[5] = molecular target: T2, human muscarinic receptor M5 (Homo sapiens, UniProt P08912); assay: Calcium flux assay (FLIPR), CHO cells expressing human M5; type: cell-based; settings: agonist mode
T2 construct: expressed in transfected cells
T2 sequence (P08912 whole entry): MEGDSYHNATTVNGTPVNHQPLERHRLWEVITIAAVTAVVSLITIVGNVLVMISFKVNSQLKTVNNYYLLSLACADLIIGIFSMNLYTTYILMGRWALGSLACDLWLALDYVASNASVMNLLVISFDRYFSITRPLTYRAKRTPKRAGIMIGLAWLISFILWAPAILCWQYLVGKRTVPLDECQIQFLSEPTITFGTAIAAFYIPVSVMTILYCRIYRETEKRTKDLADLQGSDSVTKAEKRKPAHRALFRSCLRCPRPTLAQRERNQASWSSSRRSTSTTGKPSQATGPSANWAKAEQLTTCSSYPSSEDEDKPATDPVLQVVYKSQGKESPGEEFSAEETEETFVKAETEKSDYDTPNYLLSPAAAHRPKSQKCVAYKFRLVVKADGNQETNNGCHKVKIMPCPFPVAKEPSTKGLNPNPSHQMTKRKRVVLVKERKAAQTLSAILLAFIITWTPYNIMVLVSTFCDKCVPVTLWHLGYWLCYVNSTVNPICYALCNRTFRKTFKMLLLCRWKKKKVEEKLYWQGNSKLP
Procedure: as §1

human M4 receptor = molecular target: T3, human M4 receptor (Homo sapiens, UniProt P08173); assay: Calcium flux assay (FLIPR), CHO cells transiently transfected with human M4; type: cell-based; settings: agonist mode
T3 construct: expressed in transfected cells; host or cells: CHO (transient transfection)
T3 sequence (P08173 whole entry): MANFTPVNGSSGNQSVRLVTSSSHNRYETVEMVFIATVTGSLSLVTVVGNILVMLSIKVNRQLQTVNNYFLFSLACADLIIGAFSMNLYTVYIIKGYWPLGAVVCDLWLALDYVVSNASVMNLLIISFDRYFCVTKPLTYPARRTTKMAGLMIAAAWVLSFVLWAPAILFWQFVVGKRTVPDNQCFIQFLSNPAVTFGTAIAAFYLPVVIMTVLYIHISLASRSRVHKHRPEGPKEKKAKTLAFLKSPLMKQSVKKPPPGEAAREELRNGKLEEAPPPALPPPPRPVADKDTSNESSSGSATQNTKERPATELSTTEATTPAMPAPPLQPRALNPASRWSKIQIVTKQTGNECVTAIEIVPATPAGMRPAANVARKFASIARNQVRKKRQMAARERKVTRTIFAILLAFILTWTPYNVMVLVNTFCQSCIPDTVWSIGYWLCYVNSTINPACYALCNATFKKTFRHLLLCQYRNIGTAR
Procedure: All cells used in the following experiments were clonal populations of Chinese Hamster Ovary (CHO) cells stably expressing the corresponding human muscarinic receptor, except for the M4 cell line, which was a population of CHO cells transiently transfected with the human M4 receptor. […] The procedure was as follows: • 1. Cells were thawed and cultured in cell culture medium (DMEM/F12 containing 10% FBS, 1× penicillin-streptomycin and 600 μg/ml hygromycin B) at 37° C. in 5% (v/v) CO2. • 2. One day before the assays, cells were detached using TrypLE™ and counted using a cell-counter. […] 12,000 cells/well were seeded in 30 μl/well culture medium in a 384-well cell plate and incubated overnight at 37C, 5% (v/v) CO2. • 4. On the assay day, 2× dye solution was prepared following the manual of the FLIPR® Calcium 6 Assay Kit: • i. The dye was diluted with assay buffer (20 mM HEPES in 1× HBSS, PH 7.4); • ii. Probenecid was added to a final concentration of 5 mM; • iii. Cells were vortexed vigorously for 1-2 minutes. • 5. Medium was removed from the cell plate by flicking the cell plate on paper towels. • 6. 10 μl of assay buffer and 10 μl of 2× dye solution was added to each well of the cell plate. • 7. […] Plates were read for 160 sec with 1 sec intervals to obtain the data in agonist mode, then kept at 25° C. in the dark for 30 min. • 11.

tear production = assay: THP-induced dry eye in dogs: tear production; type: in vivo, Beagles; settings: oral, 2 mpk alone, 4 hours post administration
dizziness = settings: humans; 3 mg THP immediate release at 0, 2, 4 hours versus 9 mg at once
Procedure: Experimental Design: All of the data collected in this example were run in a double-blind, randomized, placebo controlled setting of normal healthy adults. […] Dizziness was measured by the visual analog scale (VAS), a common clinical measure of dizziness.

T1 sequence (P08172 whole entry): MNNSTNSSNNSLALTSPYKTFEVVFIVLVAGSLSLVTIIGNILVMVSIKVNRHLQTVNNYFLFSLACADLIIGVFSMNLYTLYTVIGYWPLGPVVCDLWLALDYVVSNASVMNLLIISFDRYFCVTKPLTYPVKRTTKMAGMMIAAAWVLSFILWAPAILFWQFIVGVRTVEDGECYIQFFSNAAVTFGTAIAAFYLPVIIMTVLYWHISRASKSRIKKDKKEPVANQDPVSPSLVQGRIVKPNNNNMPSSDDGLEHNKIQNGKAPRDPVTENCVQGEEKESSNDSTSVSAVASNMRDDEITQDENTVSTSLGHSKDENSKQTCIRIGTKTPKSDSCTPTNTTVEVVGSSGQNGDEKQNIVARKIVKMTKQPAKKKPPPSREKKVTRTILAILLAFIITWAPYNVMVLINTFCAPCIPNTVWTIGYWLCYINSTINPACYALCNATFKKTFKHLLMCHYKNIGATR

EC50 [1] [µM] | EC50 [2] [µM] | EC50 [3] [µM] | EC50 [5] [µM] | EC50 (human M4 receptor) [µM] | SMILES | signal at any receptor of the panel [4] [%] | % Baseline tear production (tear production) [%] | dizziness (VAS) (dizziness)
> 10 | 7.57 | > 10 | > 10 | > 10 | C[C@H](C[N+](C)(C)C)OC(N)=O.[Cl-] [(R)-BTC, (R)-bethanechol, reference compound] | < 50 |  | 
 |  |  |  |  | OC(CCN1CCCCC1)(c1ccccc1)C1CCCCC1 (centres unmarked) [THP, trihexyphenidyl] |  | 89.1 | significantly reduced dizziness
